Experimental data reported in US20200147039A1, “COMPOUNDS USEFUL IN INHIBITING HUMAN TREFOIL FACTOR 3” (NATIONAL UNIVERSITY OF SINGAPORE, priority 2017, published 2020).

The compounds below were run on MCF-7 (assay: AlamarBlue cell viability assay, MCF7). Conditions: Homo sapiens, MCF7, MCF-7, AlamarBlue cell viability (Table 8).
Assay type: cell-based, human
Excerpt: (A) Inhibitory concentration 50% (IC50) values for compound 43 in the MC cell lines are tabulated, using an AlamarBlue™ cell viability assay as previously described in Pandey V et al., Breast Cancer Res. 2014; 16(5):429. (B) Measured dose-dependent manner effect of compound 43 on the viability of MC cells (left-side, TFF3-high and right, TFF3-low) using AlamarBlue™ viability assay as previously described (ibid). (C) Apoptotic cell death of mammary carcinoma cell lines measured after treatment with 10 μM compound 43 using flow cytometry analysis at 24 hour as described previously in Keerthy H K et al., PloS one. 2014; 9(9):e107118. Annexin V-FITC staining is indicated on the X-axis and PI staining on the Y-axis. […] Acquisition of Annexin V and PI data were represented as percentage (%) in each quadrant. Note: CM, conditioned media; MCF10A and MCF12A, non-transformed immortalized-mammary epithelial cell line. Points are mean of triplicate experiments; bars, ±SD. Statistical significance was assessed by using an unpaired two-tailed Student's t test (P<0.05 was considered as significant) using GraphPad Prism5. Columns are mean of triplicate experiments; bars, ±SD. **P<0.001, *P<0.05.
The human immortalized mammary epithelial cell lines, MCF10A, and MCF12A; and immortalized hepatocellular epithelial cell line, LO2 were obtained from the American Type Culture Collection (ATCC, Rockville, Md.) and were cultured as per ATCC propagation instructions. MC cell lines, MCF7, T47D, BT474, BT20, MDA-MB-361, MDA-MB-436, MDA-MB-468, and MDA-MB-231; endometrial carcinoma cell lines, Ishikawa, ECC1, RL95-2 and AN3; hepatocellular carcinoma cell lines, Hep3B, H2P, and H2M; colon carcinoma cell lines, DLD-1, and Caco-2; and prostate carcinoma cell lines, PC3, LNCaP, and DU145 were obtained from the American Type Culture Collection (ATCC, Rockville, Md.). Pancreatic carcinoma cell lines, AsPC-1 and BxPC-3; Lung carcinoma cell lines, HCC-827, NCI-H1975, HCC-4006, PC-14, and NCI-H1299; and Thyroid carcinoma cell lines HTH83, CAL62, T238, and OGK-M were obtained from Prof. H. Phillip Koeffler's laboratory at The Cancer Science Institute of Singapore, National University of Singapore (NUS). Gastric carcinoma cell lines, AGS, MKN-28, MKN-45, and A2-528 were obtained from Prof. Yoshiaki Ito's laboratory at The Cancer Science Institute of Singapore, NUS. All cell lines were cultured as per ATCC propagation instructions.
The above synthesised compounds were initially evaluated against a range of carcinoma cells using an AlamarBlue™ cell viability assay (using the protocol discussed above). The tested compounds were generally efficacious at reducing the viability of various carcinoma cells compared to vehicle (DMSO) treated cells. Table 8 provides selected IC50 data for certain of the compounds synthesised herein against MCF-7.
In table 9 IC50 values of compound 43 compound library in several cancer cell lines are tabulated, using an AlamarBlue® cell viability assay as previously described in Pandey V et al., Breast Cancer Res. 2014; 16(5):429. Statistical analysis was assessed by using GraphPad Prism5. Note: NV, no value.

| Structure (SMILES) | IC50 [µM] |
| --- | --- |
| N#CC1=C(N)Oc2c(c(=O)oc3ccccc23)C1c1ccc(-c2ccc(Cl)c(C(F)(F)F)c2)cc1 (stereo not shown) [Compound 25] | 18.4 |
| N#CC1=C(N)Oc2c(c(=O)oc3ccccc23)C1c1ccc(-c2ccc(C(F)(F)F)cc2)cc1 (stereo not shown) [Compound 123] | 2.54 |
| COc1ccc2c3c(c(=O)oc2c1)C(c1ccc(-c2ccc(C(F)(F)F)cc2)cc1)C(C#N)=C(N)O3 (stereo not shown) [Compound 151] | 2.45 |
| N#CC1=C(N)Oc2c(c(=O)oc3ccc(F)cc23)C1c1ccc(-c2cccc3ccccc23)cc1 (stereo not shown) [Compound 156] | 24.8 |
| Cc1c(-c2ccc(C3C(C#N)=C(N)Oc4c3c(=O)oc3ccccc43)c(F)c2)ccnc1F (stereo not shown) [Compound 130] | 7.93 |
| COc1ccc(S(=O)(=O)NC2=C(C#N)C(c3ccc(OC)c(-c4cnc(F)c(C)c4)c3)c3c(c4ccccc4oc3=O)O2)cc1 (stereo not shown) [Compound 111] | 39.3 |
| COc1ccc(C2C(C#N)=C(N)Oc3c2c(=O)oc2ccccc32)cc1-c1cnc(F)c(C)c1 (stereo not shown) [Compound 91] | 11.8 |
| N#CC1=C(N)Oc2c(c(=O)oc3ccc(F)cc23)C1c1ccc(-c2cccnc2)cc1 (stereo not shown) [Compound 144] | 6.85 |
| COc1ccc(C2C(C#N)=C(NS(=O)(=O)c3ccccc3)Oc3c2c(=O)oc2ccccc32)cc1-c1cnc(F)c(C)c1 (stereo not shown) [Compound 110] | 67.4 |
| COc1ccc(C2C(C#N)=C(NC(=O)c3ccc(C(F)(F)F)cc3)Oc3c2c(=O)oc2ccccc32)cc1-c1cnc(F)c(C)c1 (stereo not shown) [Compound 102] | 33 |
| COc1ccc(C2C(C#N)=C(NC(=O)c3cc(Cl)ccc3Cl)Oc3c2c(=O)oc2ccccc32)cc1-c1cnc(F)c(C)c1 (stereo not shown) [Compound 105] | 23.7 |
| Cc1cc(-c2ccc(C3C(c4nnn[nH]4)=C(N)Oc4c3c(=O)oc3ccccc43)cc2)cnc1F (stereo not shown) [Compound 113] | 33.1 |
| COc1ccc(C2C(C#N)=C(N)Oc3c2c(=O)oc2ccccc32)cc1-c1ccccc1 (stereo not shown) [Compound 49] | 28.2 |
| N#CC1=C(N)Oc2c(c(=O)oc3ccccc23)C1c1ccc(-c2ccncc2)cc1F (stereo not shown) [Compound 131] | 2.89 |
| N#CC1=C(N)Oc2c(c(=O)oc3ccccc23)C1c1ccc(-c2cncnc2)cc1F (stereo not shown) [Compound 139] | 4.23 |
| Cc1cc(-c2ccc(C3C(C#N)=C(N)Oc4c3c(=O)oc3ccc(F)cc43)c(F)c2)cnc1Cl (stereo not shown) [Compound 170] | 27.3 |
| Cc1cc(-c2ccc(C3C(C#N)=C(NC(=O)c4cc(Cl)ccc4Cl)Oc4c3c(=O)oc3ccccc43)cc2)cnc1F (stereo not shown) [Compound 100] | 177 |
| N#CC1=C(N)Oc2c(c(=O)oc3ccc(F)cc23)C1c1ccc(-c2cccnc2)cc1F (stereo not shown) [Compound 166] | 53.8 |
| COc1ccc(C2C(c3nnn[nH]3)=C(N)Oc3c2c(=O)oc2ccccc32)cc1-c1cnc(F)c(C)c1 (stereo not shown) [Compound 114] | 39.8 |
| N#CC1=C(N)Oc2c(c(=O)oc3ccccc23)C1c1ccc(-c2cn[nH]c2)cc1 (stereo not shown) [Compound 129] | 263 |
| COc1ccc(C2C(C#N)=C(NC(=O)Cc3cccc(Cl)c3)Oc3c2c(=O)oc2ccccc32)cc1-c1cnc(F)c(C)c1 (stereo not shown) [Compound 103] | 40 |
| N#CC1=C(N)Oc2c(c(=O)oc3ccccc23)C1c1ccc(-c2ccccc2)cc1 (stereo not shown) [Compound 1] | 22.6 |
| N#CC1=C(N)Oc2c(c(=O)oc3ccc(F)cc23)C1c1ccc(-c2cncnc2)cc1F (stereo not shown) [Compound 168] | 251 |
| COc1ccc(C2C(C#N)=C(N)Oc3c2c(=O)oc2ccccc32)cc1-c1ccc(Cl)c(C(F)(F)F)c1 (stereo not shown) [Compound 73] | 14.8 |
| COc1ccc2c3c(c(=O)oc2c1)C(c1ccc(-c2ccc(C)nc2)cc1)C(C#N)=C(N)O3 (stereo not shown) [Compound 153] | 4.9 |
| COc1ccc2c3c(c(=O)oc2c1)C(c1ccc(-c2cccnc2)cc1)C(C#N)=C(N)O3 (stereo not shown) [Compound 143] | 0.685 |

| Structure (SMILES) | IC50 [µM] |
| --- | --- |
| CC(=O)c1ccc(-c2ccc(C3C(C#N)=C(N)Oc4c3c(=O)oc3ccc(F)cc43)cc2)s1 (stereo not shown) [Compound 158] | 95.2 |
| Cc1ccc(-c2ccc(C3C(C#N)=C(N)Oc4c3c(=O)oc3ccccc43)c(F)c2)cn1 (stereo not shown) [Compound 135] | 3.26 |
| COc1ccc(CC(=O)NC2=C(C#N)C(c3ccc(OC)c(-c4cnc(F)c(C)c4)c3)c3c(c4ccccc4oc3=O)O2)cc1OC (stereo not shown) [Compound 104] | 8.96 |
| COc1ccc(CC(=O)NC2=C(C#N)C(c3ccc(-c4cnc(F)c(C)c4)cc3)c3c(c4ccccc4oc3=O)O2)cc1OC (stereo not shown) [Compound 99] | 33.4 |
| COc1cccc(-c2ccc(C3C(C#N)=C(N)Oc4c3c(=O)oc3ccccc43)c(F)c2)c1 (stereo not shown) [Compound 140] | 1.07 |
| N#CC1=C(N)Oc2c(c(=O)oc3ccccc23)C1c1ccc(-c2ccc(Cl)cc2)cc1 (stereo not shown) [Compound 127] | 3.25 |
| N#CC1=C(N)Oc2c(c(=O)oc3ccccc23)C1c1ccc(-c2ccc(Cl)cc2)cc1F (stereo not shown) [Compound 137] | 3.95 |
| Cc1ccccc1-c1ccc(C2C(C#N)=C(N)Oc3c2c(=O)oc2ccccc32)c(F)c1 (stereo not shown) [Compound 138] | 0.751 |
| COc1cccc(-c2cc(C3C(C#N)=C(N)Oc4c3c(=O)oc3ccccc43)ccc2OC)c1 (stereo not shown) [Compound 61] | 8.94 |
| Cc1cc(-c2ccc(C3C(C#N)=C(NS(=O)(=O)c4ccccc4)Oc4c3c(=O)oc3ccccc43)cc2)cnc1F (stereo not shown) [Compound 107] | 19.5 |
| N#CC1=C(N)Oc2c(c(=O)oc3ccc(F)cc23)C1c1ccc(-c2ccc(Cl)cc2)cc1 (stereo not shown) [Compound 155] | 36.1 |
| N#CC1=C(N)Oc2c(c(=O)oc3ccc(F)cc23)C1c1ccc(-c2ccncc2)cc1 (stereo not shown) [Compound 145] | 2.81 |
| COc1cccc(-c2ccc(C3C(C#N)=C(N)Oc4c3c(=O)oc3ccc(F)cc43)cc2)c1 (stereo not shown) [Compound 164] | 27.3 |
| COc1ccc(C2C(C#N)=C(NC(=O)c3cccn3C)Oc3c2c(=O)oc2ccccc32)cc1-c1cnc(F)c(C)c1 (stereo not shown) [Compound 106] | 55 |
| N#CC1=C(N)Oc2c(c(=O)oc3ccccc23)C1c1ccc(-c2cccnc2)cc1F (stereo not shown) [Compound 133] | 3.26 |
| N#CC1=C(N)Oc2c(c(=O)oc3ccccc23)C1c1ccc(-c2cccc3ccccc23)cc1 (stereo not shown) [Compound 125] | 8.23 |
| COc1ccc(C2C(C#N)=C(N)Oc3c2c(=O)oc2ccccc32)cc1-c1ccccc1C (stereo not shown) [Compound 55] | 18.6 |
| COc1ccc(C2C(C#N)=C(N)Oc3c2c(=O)oc2ccccc32)cc1-c1cccnc1 (stereo not shown) [Compound 79] | 9.15 |
| N#CC1=C(N)Oc2c(c(=O)oc3ccccc23)C1c1ccc(-c2ccc(C(F)(F)F)cc2)cc1F (stereo not shown) [Compound 134] | 1.84 |
| COc1ccc2c3c(c(=O)oc2c1)C(c1ccc(-c2cnc(Cl)c(C)c2)cc1)C(C#N)=C(N)O3 (stereo not shown) [Compound 148] | 7.38 |
| COc1ccc2c3c(c(=O)oc2c1)C(c1ccc(-c2ccccc2C)cc1)C(C#N)=C(N)O3 (stereo not shown) [Compound 163] | 22.8 |
| Cc1cc(-c2ccc(C3C(C#N)=C(NC(=O)c4cccn4C)Oc4c3c(=O)oc3ccccc43)cc2)cnc1F (stereo not shown) [Compound 101] | 40.4 |
| Cc1cc(-c2ccc(C3C(C#N)=C(N)Oc4c3c(=O)oc3ccccc43)c(F)c2)cnc1Cl (stereo not shown) [Compound 132] | 1.21 |
| N#CC1=C(N)Oc2c(c(=O)oc3ccccc23)C1c1ccc(-c2ccncc2)cc1 (stereo not shown) [Compound 121] | 15.8 |
| COc1cccc(-c2ccc(C3C(C#N)=C(N)Oc4c3c(=O)oc3ccccc43)cc2)c1 (stereo not shown) [Compound 13] | 17.8 |
| Cc1cc(-c2ccc(C3C(C#N)=C(NS(=O)(=O)c4ccc([N+](=O)[O-])cc4)Oc4c3c(=O)oc3ccccc43)cc2)cnc1F (stereo not shown) [Compound 109] | 34.9 |
